Measurements published in patent US7994326B2 (Northwestern University, priority 2003, dated 2011).

Legend:
Format in all cases: biochemical
rat nNOS = target: T1, rat nNOS (Rattus norvegicus, UniProt P29476); assay: NOS enzyme inhibitory assay (hemoglobin capture), nNOS; details: Table 1b; for Selectivity n/e: ratio of Ki values eNOS/nNOS; for Selectivity n/i: ratio of Ki values iNOS/nNOS; for Ki: read-out: Ki nNOS
T1 construct: made in house; host or cells: E. coli (plasmid pCWnNOS)
Description: (§1) All of the NOS isoforms used were recombinant enzymes overexpressed in E. coli from different sources. Nitric oxide formation from NOS was monitored by the hemoglobin capture assay as described in the literature.
After approximately 48 h of post-induction incubation in the dark at 25° C. the cells were pelleted at 5300×g, transferred to 50 mL conical tubes, and stored at −80° C.
nNOS purification: Cell pellets from 2.0 L of culture were resuspended in sonication Buffer A (50 mM Tris Base Buffer, pH 8.0, 10% glycerol), 2 mg/ml lysozyme. 0.5 mM L-arginine. 1 mM EDTA, 0.1 mM PMSF, 1 µg/ml antipain, and 1 μM each of leupeptin, […], and […]) and lysed by sonication. Centrifugation for 1 h at 100000×g yielded supernatant which contained nNOS active enzyme. The supernatant was brought to 2 mM CaCl2 and the protein was loaded onto a 15 ml calmodulin-Sepharose column equilibrated with Buffer A containing 2 mM CaCl2. The column was washed with 100 ml Buffer B (50 mM Hepes, 5 mM DTT, and […]) containing 2 mM CaCl2, 0.5 mM L-arginine, and 10 μM BH4, and eluted with 30 ml Buffer B supplemented with 0.3 M NaCl, 5 mM EGTA, 0.5 mM L-arginine, and 10 μM BH4. The protein was then loaded onto a 5 ml 2′,5′-ADP-Sepharose column equilibrated with Buffer B supplemented with 0.3 M NaCl, 0.5 mM L-arginine, and 10 μM BH4. The column was washed with 25 ml Buffer B containing 0.5 mM L-arginine and 10 μM BH4, and then 25 ml of Buffer B only supplemented with 10 μM BH4 (without L-arginine). Neuronal NOS was eluted with 20 ml Buffer B supplemented with 10 mM 2′(3′)-AMP, 10 μM BH4 and 0.3 M NaCl. The 20 ml eluent was then concentrated to 5 ml by ultrafiltration. The above concentration operation was repeated twice more with 10 ml Buffer B supplemented with 10 µM BH4 to give the purified neuronal NOS.
Nitric oxide formation from NOS was monitored by the hemoglobin capture assay as described previously.
(§2) The selectivity of an inhibitor is defined as the ratio of the respective Ki values.

murine iNOS = target: T2, murine iNOS (Mus musculus, UniProt P29477); assay: NOS enzyme inhibitory assay (hemoglobin capture), iNOS; details: Table 1b; read-out: Ki iNOS
T2 construct: made in house; host or cells: E. coli (plasmid pCWiNOS)
Text: as §1
Enzyme inhibitory assay. All of the NOS isoforms used are recombinant enzymes overexpressed in E. coli from different sources.
iNOS expression: An overnight culture of pCWiNOS was used to inoculate (1:100) larger cultures of Terrific Broth media (12 g/L tryptone, 24 g/L yeast extract, 4 mL/L glycerol, 17 mM KH2PO4, and 72 mM K2HPO4) containing 50 μg/mL ampicillin and 34 μg/mL chloramphenicol at 37° C. At an OD600 of ˜0.5, the culture was cooled to 25° C. and induced by the addition of 1 mM IPTG (final concentration). After approximately 24 h of growth at 25° C., the cells were pelleted at 5300×g, transferred to 50 mL conical tubes, and stored at −80° C.
iNOS purification: Cell pellets from 1.0 L of culture were resuspended in sonication buffer (50 mM Hepes, pH 7.4, 10% glycerol, 10 μg/mL benzamidine, 5 μg/mL leupeptin, 0.2 mM of PMSF, and 1 μg/mL each of pepstatin, chymostatin, and antipain) and lysed by sonication. Centrifugation for 20 min at 13000×g yielded supernatant which contained iNOS active enzyme. iNOS supernatant was loaded onto 1 g of a 2′,5′-ADP-Sepharose 4B resin column. The column was then washed with 20 ml iNOS purification buffer (10 mM K2HPO4, 10% glycerol, 0.5 mM L-arginine, pH 7.4) and 10 μM BH4. Inducible NOS was eluted with 30 ml iNOS purification buffer supplemented with 10 mM 2′(3′)-AMP, 10 μM BH4, and 0.3 M NaCl. The eluent was concentrated to 5 ml by ultrafiltration. The above concentration operation was repeated three times more with 10 ml Hepes buffer supplemented with 10 μM BH4, to give purified inducible NOS.
(§3) Nitric oxide formation from NOS was monitored by the hemoglobin capture assay as described previously. (Hevel, J. M.; Marletta, M. A. Nitric Oxide Synthase Assays. Methods Enzymol. 1994, […], 250-258).
as §2

bovine eNOS = target: T3, bovine eNOS (Bos taurus, UniProt P29473); assay: NOS enzyme inhibitory assay (hemoglobin capture), eNOS; details: Table 1b; read-out: Ki eNOS
T3 construct: made in house; host or cells: E. coli (plasmid Bov-eNOSpCW)
Description: as §1
Expression of bovine eNOS: An overnight culture of Bov-eNOSpCW was used to inoculate 0.5 liter (in a 2.8-liter Fernbach flask) of modified TB (20 g of yeast extract, 10 g of bacto-tryptone, 2.65 g of KH2PO4, 4.33 g of Na2HPO4 and 4 ml of glycerol per liter) containing ampicillin ([…]) and chloramphenicol ([…]). The cultures were grown to an OD600 of z0.8 at 22° C. (200 rpm) and induced with 0.5 mM IPTG. One hour before IPTG induction, d-aminolevulinic acid (0.5 mM final) was added and, at the time of IPTG induction, riboflavin ([…]) and ATP (1 mM final) were also added. After induction, the flasks were kept in the dark at 22° C. (200 rpm). The cells were harvested 48 h after induction, and the cell pellet was frozen at −80° C. until purification was carried out.
Purification of bovine eNOS. The purification was typically carried out with eNOS from 2 liters of E. coli culture. The eNOS protein was purified using a modification of the published protocol for nNOS (14). The cells were resuspended in buffer C [50 mM Tris-Cl, pH 7.8, 1 mM EDTA, 1 mM DTT, 10% glycerol (v/v), 150 mM NaCl, 0.1 mM phenylmethylsulfonyl fluoride, […]], lysed by pulsed sonication and then centrifuged to sediment the cell debris. The supernatant was applied to a 2′,5′-ADP Sepharose 4B column equilibrated in buffer D [50 mM Tris-Cl, pH 7.8, 0.1 mM EDTA, 0.1 mM dithiothreitol, 150 mM NaCl, 10% glycerol (v/v)]. The column was washed with 20 column volumes of buffer B and again with 20 column volumes of buffer B containing 600 mM NaCl. Finally, protein was eluted with buffer B containing 600 mM NaCl and 5 mM 2′-AMP. The fractions were screened for absorption in the Soret region (A400) and hemoprotein-containing fractions were pooled and concentrated (Centriprep 50, Amicon). Repeated dilution/concentration [50 mM Tris-Cl, pH 7.8, 0.1 mM EDTA, 0.1 mM dithiothreitol, 10% glycerol (vol/vol)] was used to reach a final concentration of 150 mM NaCl and commensurately reduce the 2′-AMP content. […] The purified eNOS is stored in the presence of 1 mM L-arginine.
eNOS washing: eNOS contains a significant amount of L-arginine, which will interfere with the enzyme assay. The L-arginine can be removed by several dilution and concentration steps using an Amico concentrator. The dilution buffer is 10 ml Tris-HCl 50 mM containing 0.1 mM EDTA, 400 mM NaCl, 10% glycerol and 1 mM beta-mercaptoethanol. The above dilution and concentration operation was repeated three times to give purified eNOS.
as §3, §2

| SMILES | Selectivity n/e (rat nNOS) | Selectivity n/i (rat nNOS) | Ki (rat nNOS) | Ki (murine iNOS) | Ki (bovine eNOS) |
| --- | --- | --- | --- | --- | --- |
| Cc1cc(N)nc(CC2CNCC2NCCNCc2cccc(C(F)(F)F)c2)c1.Cl.Cl.Cl.Cl (racemic) [Compound P-52] | 563.6 | 65.8 | 0.206 µM | 13.6 µM | 116 µM |
| Cc1cccc(CNCCN[C@@H]2CNC[C@@H]2Cc2cc(C)cc(N)n2)c1.Cl.Cl.Cl.Cl (racemic) [Compound P-53] | 450.5 | 56.7 | 0.159 µM | 9.01 µM | 71.6 µM |
| Cc1cc(N)nc(C[C@H]2CNC[C@@H]2NCCNCc2ccc(F)cc2)c1.Cl.Cl.Cl.Cl (racemic) [Compound P-57] | 90.1 | 31.3 | 0.87 µM | 27.4 µM | 78.8 µM |
| Cc1cc(N)nc(CC2CNCC2NCCNCc2cccc(C(F)(F)F)c2)c1.Cl.Cl.Cl.Cl (racemic) [Compound P-58] | 146.1 | 79 | 0.74 µM | 58.7 µM | 109 µM |
| Cc1cccc(CNCCN[C@H]2CNC[C@@H]2Cc2cc(C)cc(N)n2)c1.Cl.Cl.Cl.Cl (racemic) [Compound P-59] | 305.5 | 127.1 | 0.66 µM | 83.9 µM | 202 µM |
| Cc1cc(N)nc(CC2CNCC2NCCNCc2ccc(Cl)c(Cl)c2)c1.Cl.Cl.Cl.Cl (racemic) [Compound P-60] | 260 | 22.6 | 0.157 µM | 3.56 µM | 40.8 µM |
| Cc1cc(N)nc(C[C@H]2CNC[C@H]2NCCNCc2ccc(Cl)cc2Cl)c1.Cl.Cl.Cl.Cl (racemic) [Compound P-61] | 272 | 70 | 0.11 µM | 7.7 µM | 29.9 µM |
| Cc1cc(N)nc(C[C@H]2CNC[C@H]2NC[C@H](C)NCc2ccc(Cl)cc2)c1.Cl.Cl.Cl.Cl (racemic) [Compound P-63] | 294.4 | 90 | 0.136 µM | 12.2 µM | 40 µM |
